“Also recorded” adds a separate entry of the source.
Assays:
N. gonorrhoeae F62 ΔIgtD [1] = assay: Flow cytometry for factor H binding to bacteria; format: cell-based; design: key to fH binding: minimal: compared to unsialylated gonococci; details: for fH binding facilitated by CMP-Neu5Ac: analogue added within 2 min of CMP-Neu5Ac 20 μg/ml
Experimental: FIG. 3. Effects of LOS modification with various nonulosonate analogues on fH binding to N. gonorrhoeae. N. gonorrhoeae F62 ΔIgtD was grown in media alone, or media supplemented with 20 μg/ml (˜30 μM) of each of the indicated CMP-nonulosonates. Binding of bacteria to fH (10 μg/ml) was measured by flow cytometry using polyclonal goat anti-human fH. The control indicates reaction mixtures that lacked fH. Y-axis, median fluorescence of fH binding. The mean (SD) of 2 independent repeats is shown.
FIG. 7. […] A. N. gonorrhoeae F62 ΔIgtD was incubated in media containing CMP-Neu5Ac (20 μg/ml), followed […] by the addition of either CMP-Neu5Ac9Az or CMP-Leg5Ac7Ac (20, 2 or 0.2 μg/ml). Bacteria were grown for 2 h and fH binding detected by FACS using polyclonal goat anti-human fH. The Y-axis represents median fluorescence. The mean (SEM) of two independent observations is shown. B. Development of serum resistance lags behind fH binding when measured as a function of time of exposure of bacteria to CMP-Neu5Ac. CMP-Neu5Ac (20 μg/ml) was added to media containing F62 ΔIgtD and bacteria were taken at the time points indicated on the X-axis and assayed for fH binding by FACS with anti-fH mAb 90× (left Y-axis; median fluorescence (SEM)), or tested for its ability to resist killing by 10% NHS (right Y-axis; percent survival). The data represent 2-3 independent experiments. C. Representative histograms of a fH binding FACS experiment.
The addition of a terminal Neu5Ac residue to LNT-expressing LOS enhances binding of the alternative pathway inhibitor, factor H, which contributes to the ability of sialylated gonococci to resist killing by complement (7). fH binding to N. gonorrhoeae F62 ΔIgtD grown in the presence of each of the CMP-nonulosonates (20 μg/ml or 30 μM) was examined (FIG. 3). […] Reducing the CMP-nonulosonate concentrations in growth media to 2 μg/ml (3 μM) yielded similar fH binding results (FIG. 9B). Further, modification of LOS with Neu5Ac or Neu5Gc yielded similar amounts of fH binding over CMP-sialic acid concentrations ranging from 0.5 to 4 μg/ml, with near maximal fH binding observed even at the lowest concentration tested (FIG. 9C).
fH binding to bacteria was performed using flow cytometry as described previously (14). Briefly, bacteria (F62 ΔIgtD) were harvested from chocolate agar plates and grown in liquid media that contained the specified concentration of the CMP-nonulosonate as described above. Bacteria were then washed with Hanks Balanced Salt Solution (HBSS) containing 1 mM Ca^2+ and 1 mM Mg^2+ (HBSS^++) and incubated with fH purified from human plasma (Complement Technology, Inc.; concentration specified for each experiment). Bound fH was detected using either anti-fH mAb (Quidel, catalog no. A254 (mAb 90×)) or goat anti-human fH, followed by FITC conjugated anti-mouse IgG or anti-goat IgG, respectively (Sigma); both Abs had similar performance characteristics. All reaction mixtures were carried out in HBSS^++/1% BSA in a final volume of 50 μl. Flow cytometry was performed using a FACSCalibur instrument (Becton Dickinson) and data were analyzed using FlowJo (version 7.2.5; Tree Star, Inc.).

N. gonorrhoeae F62 ΔIgtD [2] = format: cell-based; design: key to Serum resistance: high: >100% survival in 10% serum; low: >100% survival in 3.3% serum and <10% survival in 10% serum; details: for bacterial survival / serum resistance: all serum concentrations tested (10, 6.7, 3.3%), 30 μM; for serum resistance mediated by CMP-Neu5Ac: analogue 20, 2 or 0.2 μg/ml added 15 min after CMP-Neu5Ac 20 μg/ml, grown 2 h; for killing of bacteria made serum resistant by CMP-Neu5Ac: analogue added 120 min after CMP-Neu5Ac, data not shown; for Serum resistance: summary Table 1
Experimental: FIG. 2. […] N. gonorrhoeae F62 ΔIgtD was grown in media alone (no CMP-sialic acid added), or media that contained 20 μg/ml (˜30 μM) of each of the indicated CMP-nonulosonates. Resistance of bacteria to complement-dependent killing in the presence of 3.3%, 6.7% or 10% normal human serum (NHS) was measured in serum bactericidal assays.
FIG. 5. […] N. gonorrhoeae F62 ΔIgtD was suspended in media containing 20 μg/ml (˜30 μM) CMP-Neu5Ac. Following 15 min of incubation at 37° C., CMP-Neu5Ac9Az or CMP-Leg5Ac7Ac (at concentrations of 20, 2 or 0.2 μg/ml final) were added and bacteria were incubated for 2 h. Serum bactericidal assays were then performed using 3.3% (solid black bars) or 10% (hatched bars) NHS. Controls included bacteria in media that lacked any CMP-nonulosonate, or bacteria that were incubated in CMP-Neu5Ac only. Y-axis, % survival.
We next determined the effects of incorporation of the CMP salts of five structural analogues of Neu5Ac (Neu5Gc, Neu5Ac9Ac, Neu5Ac9Az, Neu5Gc8Me and Leg5Ac7Ac) on the ability of N. gonorrhoeae F62 ΔIgtD to resist complement-dependent killing by normal human serum at concentrations of 10, 6.7 or 3.3%. Bacteria were grown either in media alone, or media supplemented with 30 μM (˜20 μg/ml) of each of the CMP-nonulosonates.
The ability of two of the CMP-nonulosonates, CMP-Neu5Ac9Az and CMP-Leg5Ac7Ac, to counter the ability of CMP-Neu5Ac to enhance serum resistance of N. gonorrrhoeae was then examined. The analogues were added at concentrations of 20, 2 or 0.2 μg/ml to growth media 15 min after the addition of CMP-Neu5Ac (20 μg/ml) to F62 ΔIgtD.
Serum bactericidal assays were performed as described previously (11). Bacteria harvested from an overnight culture on chocolate agar plates were grown in liquid media containing the specified concentration of CMP-nonulosonate as specified for each experiment. Approximately 2000 CFU of F62 ΔIgtD were incubated with NHS (concentration specified for each experiment). The final reaction volumes were maintained at 150 μl. […]

[3] = CMP-nonulosonate 20 μg/ml or 30 μM, vs unsialylated F62 ΔIgtD

Molecule | fH binding facilitated by CMP-Neu5Ac (N. gonorrhoeae F62 ΔIgtD [1]) | fH binding (N. gonorrhoeae F62 ΔIgtD [1]; summary Table 1) | bacterial survival / serum resistance (N. gonorrhoeae F62 ΔIgtD [2]) | serum resistance mediated by CMP-Neu5Ac (N. gonorrhoeae F62 ΔIgtD [2]) | killing of bacteria made serum resistant by CMP-Neu5Ac (N. gonorrhoeae F62 ΔIgtD [2]) | Serum resistance (N. gonorrhoeae F62 ΔIgtD [2]) | fH binding (N. gonorrhoeae F62 ΔIgtD [1]; [3]) | fH binding as function of time of exposure (N. gonorrhoeae F62 ΔIgtD [1]; CMP-Neu5Ac 20 μg/ml, 2 min) | fH binding, % of maximal binding (N. gonorrhoeae F62 ΔIgtD [1]; CMP-Neu5Ac 20 μg/ml, by 16 min) [%] | fH binding as function of time of exposure (N. gonorrhoeae F62 ΔIgtD [1]; CMP-Neu5Ac 20 μg/ml, by 32 min) | fH binding (N. gonorrhoeae F62 ΔIgtD [1]; CMP-sialic acid 0.5 to 4 μg/ml, lowest concentration tested) | bacterial survival (N. gonorrhoeae F62 ΔIgtD [2]; CMP-Neu5Ac 20 μg/ml, 32 min exposure, 10% NHS) [%] | resistance to 10% serum (N. gonorrhoeae F62 ΔIgtD [2]; CMP-nonulosonate 3 μM (~2 μg/ml), 10% serum)
5,7-diacetamido-3,5,7,9-tetradeoxy-D-glycero-D-galacto-nonulosonic acid [CMP-Leg5Ac7Ac] | did not interfere with fH binding | minimal | did not increase bacterial survival | blocked serum resistance; also recorded: completely blocked | did not induce any killing | none | – | – | – | – | – | – | –
CC(=O)N[C@H]1[C@H]([C@H](O)[C@H](O)COC(C)=O)OC(OP(=O)(O)OC[C@H]2O[C@@H](n3ccc(N)nc3=O)[C@H](O)[C@@H]2O)(C(=O)O)C[C@@H]1O (stereo partly drawn) [CMP-Neu5Ac9Ac, CMP-5-acetamido-9-O-acetyl-3,5-dideoxy-D-glycero-D-galacto-nonulosonic acid] | – | intermediate | – | – | – | low^C | intermediate | – | – | – | – | – | –
CC(=O)N[C@H]1[C@H]([C@H](O)[C@H](O)CN=[N+]=[N-])OC(OP(=O)(O)OC[C@H]2O[C@@H](n3ccc(N)nc3=O)[C@H](O)[C@@H]2O)(C(=O)O)C[C@@H]1O (stereo partly drawn) [CMP-Neu5Ac9Az, CMP-5-acetamido-9-azido-3,5,9-trideoxy-D-glycero-D-galacto-nonulosonic acid] | did not interfere with fH binding | minimal^A | did not increase bacterial survival | blocked serum resistance; also recorded: completely blocked | did not induce any killing | none | – | – | – | – | – | – | –
CC(=O)NC1C(O)CC(OP(=O)(O)OCC2OC(n3ccc(N)nc3=O)C(O)C2O)(C(=O)O)OC1C(O)C(O)CO [CMP-Neu5Ac, CMP-5-acetamido-3,5-dideoxy-D-glycero-D-galacto-nonulosonic acid, reference compound] | – | high | – | – | – | high^B (>100% survival in 10% serum) | Maximal | barely any fH binding above control levels | ~70 | near maximal binding | near maximal | ~42 | conferred resistance
COC(CO)C(O)C1OC(OP(=O)(O)OCC2OC(n3ccc(N)nc3=O)C(O)C2O)(C(=O)O)CC(O)C1NC(=O)CO [CMP-Neu5Gc8Me, CMP-5-hydroxyacetamido-8-O-methyl-3,5-dideoxy-D-glycero-D-galacto-nonulosonic acid] | – | minimal | – | – | – | low | – | – | – | – | – | – | –

From patent US10865222B2, “Neisseria gonorrhoeae therapeutic based on CMP-nonulosonate sugars” (priority 2014, dated 2020)
